Consider three compounds from article PMC3121796 (PLoS ONE, 2011).

For experiment [1] the following is noted: cited from earlier work. The source says:
It was reported that the cytoplasm of E. coli cells contains high levels of reduced glutathione (approximately 5 mmole/L); therefore, the potential of ...

For experiment [2], the target named is T1, human Nav1.7 (hNav1.7) (Homo sapiens, UniProt Q15858).
T1 construct: expressed in transfected cells; host or cells: HEK293
Briefly: whole-cell patch-clamp assay, inhibition of hNav1.7 currents. Type of experiment: cell-based. Conditions: 1 µmole/L toxin, HEK293 cells expressing hNav1.7, depolarization to −10 mV, room temperature, one range given for both toxins. Background: The patch-clamp technique gives a direct electrical read-out from membranes.

Positions of bridges follow the written chain, without caps; N, C: chain ends. Residues, ends and D or L forms follow the SMILES beside them. No end group written: not given here.

T1 sequence (Q15858 whole entry): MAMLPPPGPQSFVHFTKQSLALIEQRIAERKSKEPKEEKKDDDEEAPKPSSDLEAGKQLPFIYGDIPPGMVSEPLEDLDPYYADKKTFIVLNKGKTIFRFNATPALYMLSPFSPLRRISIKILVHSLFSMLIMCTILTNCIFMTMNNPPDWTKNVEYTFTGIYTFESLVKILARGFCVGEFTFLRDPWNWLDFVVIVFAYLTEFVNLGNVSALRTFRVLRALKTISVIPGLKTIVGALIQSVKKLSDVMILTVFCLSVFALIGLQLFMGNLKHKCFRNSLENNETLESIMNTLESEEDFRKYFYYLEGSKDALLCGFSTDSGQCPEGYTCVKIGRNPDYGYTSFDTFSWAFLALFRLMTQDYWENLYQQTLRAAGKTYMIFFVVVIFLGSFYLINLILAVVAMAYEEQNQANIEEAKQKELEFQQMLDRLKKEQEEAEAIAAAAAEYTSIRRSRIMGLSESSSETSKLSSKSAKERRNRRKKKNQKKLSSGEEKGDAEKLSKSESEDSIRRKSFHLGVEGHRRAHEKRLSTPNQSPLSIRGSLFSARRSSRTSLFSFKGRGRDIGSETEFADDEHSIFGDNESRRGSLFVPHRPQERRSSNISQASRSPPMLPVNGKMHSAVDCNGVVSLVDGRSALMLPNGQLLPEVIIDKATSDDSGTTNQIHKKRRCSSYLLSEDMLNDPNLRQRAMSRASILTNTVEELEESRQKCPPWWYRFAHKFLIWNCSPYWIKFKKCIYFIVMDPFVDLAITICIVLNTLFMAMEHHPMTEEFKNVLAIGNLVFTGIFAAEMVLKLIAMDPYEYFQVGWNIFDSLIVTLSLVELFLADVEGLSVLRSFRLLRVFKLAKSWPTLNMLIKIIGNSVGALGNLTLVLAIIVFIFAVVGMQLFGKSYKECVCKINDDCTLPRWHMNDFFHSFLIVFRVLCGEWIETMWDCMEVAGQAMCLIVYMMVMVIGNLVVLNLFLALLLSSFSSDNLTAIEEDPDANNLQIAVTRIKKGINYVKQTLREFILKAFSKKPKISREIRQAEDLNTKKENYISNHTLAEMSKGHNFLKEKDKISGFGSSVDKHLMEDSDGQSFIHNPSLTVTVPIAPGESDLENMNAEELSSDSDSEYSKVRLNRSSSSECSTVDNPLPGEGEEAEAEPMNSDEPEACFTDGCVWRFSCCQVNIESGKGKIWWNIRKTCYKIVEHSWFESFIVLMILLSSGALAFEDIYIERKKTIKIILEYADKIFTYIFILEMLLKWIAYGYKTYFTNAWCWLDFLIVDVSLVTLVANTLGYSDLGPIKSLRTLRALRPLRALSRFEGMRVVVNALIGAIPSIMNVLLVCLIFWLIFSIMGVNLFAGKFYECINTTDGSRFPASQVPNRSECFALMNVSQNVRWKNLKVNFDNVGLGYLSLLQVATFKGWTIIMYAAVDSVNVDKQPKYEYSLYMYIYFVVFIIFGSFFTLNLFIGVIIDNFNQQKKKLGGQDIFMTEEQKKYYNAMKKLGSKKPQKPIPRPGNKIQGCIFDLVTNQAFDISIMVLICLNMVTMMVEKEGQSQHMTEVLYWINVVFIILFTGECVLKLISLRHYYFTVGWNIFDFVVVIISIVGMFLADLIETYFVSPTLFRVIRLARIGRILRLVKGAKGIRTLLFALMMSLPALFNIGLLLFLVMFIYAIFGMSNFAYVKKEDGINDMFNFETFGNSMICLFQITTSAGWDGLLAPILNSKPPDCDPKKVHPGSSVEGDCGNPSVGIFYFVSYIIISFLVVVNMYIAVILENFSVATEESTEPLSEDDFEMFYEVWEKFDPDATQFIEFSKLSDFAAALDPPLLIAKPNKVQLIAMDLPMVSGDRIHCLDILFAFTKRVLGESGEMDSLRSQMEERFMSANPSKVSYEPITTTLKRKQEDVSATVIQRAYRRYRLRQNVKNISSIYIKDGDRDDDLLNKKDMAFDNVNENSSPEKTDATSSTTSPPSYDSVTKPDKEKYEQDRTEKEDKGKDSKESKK

In the case of “rHWTX-I (baculovirus): earlier rHWTX-I expressed in a baculovirus system (ACKGVFDACTPGKNECCPNRVCSDKHKWCKWKL; ends and bridges not checked; cysteine pairing not given here; UniProt P56676 49-81, looked up)”, the “bioactivity of baculovirus-expressed peptide” value in experiment [1] (baculovirus system, ref [11]) was “demonstrated natural bioactivities”.

With `CC(C)C[C@H](NC(=O)[C@H](CCCCN)NC(=O)[C@H](Cc1c[nH]c2ccccc12)NC(=O)[C@H](CCCCN)NC(=O)[C@@H]1CSSC[C@@H]2NC(=O)[C@H](CCC(=O)O)NC(=O)[C@H](CC(N)=O)NC(=O)[C@H](CCCCN)NC(=O)CNC(=O)[C@@H]3CCCN3C(=O)[C@H]([C@@H](C)O)NC(=O)[C@@H]3CSSC[C@H](NC(=O)[C@H](C(C)C)NC(=O)[C@H](CCCNC(=N)N)NC(=O)[C@H](CC(N)=O)NC(=O)[C@@H]4CCCN4C(=O)[C@H](CSSC[C@H](NC(=O)[C@H](C)N)C(=O)N[C@@H](CCCCN)C(=O)NCC(=O)N[C@@H](C(C)C)C(=O)N[C@@H](Cc4ccccc4)C(=O)N[C@@H](CC(=O)O)C(=O)N[C@@H](C)C(=O)N3)NC2=O)C(=O)N[C@@H](CO)C(=O)N[C@@H](CC(=O)O)C(=O)N[C@@H](CCCCN)C(=O)N[C@@H](Cc2c[nH]cn2)C(=O)N[C@@H](CCCCN)C(=O)N[C@@H](Cc2c[nH]c3ccccc23)C(=O)N1)C(=O)O` [rHWTX-I] (H-ACKGVFDACTPGKNECCPNRVCSDKHKWCKWKL-OH; disulfide 2-17, 9-22, 16-29), the “hNav1.7 current reduced to (remaining current)” value in experiment [2] is recorded as 33–36%.

As to “rHWTX-I (GST or KIS fusion, cytoplasm): earlier rHWTX-I expressed fused with GST or ketosteroid isomerase (KIS) in the cytoplasm of E. coli cells (ACKGVFDACTPGKNECCPNRVCSDKHKWCKWKL; not fully specified; cysteine pairing not given here; UniProt P56676 49-81, looked up)”, the “bioactivity after release by enzyme digestion” value in experiment [1] (GST fusion expressed in cytoplasm of E. coli, no disulfide bridge formed, ref [8]) is on record as “very low bioactivity”. Also, the bioactivity after reduction/renaturation result in experiment [1] (released from GST or KIS fusion protein expressed in cytoplasm of E. coli, after reduction/renaturation treatment, ref [8], [9]) is “fully restore the bioactivities”. Besides, the bioactivity before reduction/renaturation result in experiment [1] (released from GST or KIS fusion protein expressed in cytoplasm of E. coli, before reduction/renaturation treatment, ref [8], [9]) is “extremely low bioactivity”.
